What was measured:
Experiment in all cases: KinomeScan
Format in all cases: binding
Details in all cases: read-out: % Ctrl @ 10000 nM
BRSK1 = biological target: T1, BRSK1 (Homo sapiens, UniProt Q8TDC3)
T1 construct: host or cells: E. coli host derived from BL21
Outline: (§1)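 Steps: grow kinase-tagged T7 phage in BL21-derived E. coli (MOI ~0.1, 32° C., to lysis); clear lysate; mix with blocked ligand beads and compound; elute; titer by qPCR.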

EPHB2 = biological target: T2, EPHB2 (Homo sapiens, UniProt P29323)
T2 construct: purchased Ambit Biosciences Corp; host or cells: T7 phage in E. coli host derived from BL21
Outline: as §1

DCAMKL2 = biological target: T3, DCAMKL2 (Homo sapiens, UniProt Q8N568)
T3 construct: purchased Ambit Biosciences Corp (KinomeScan); host or cells: T7 phage in E. coli host derived from BL21
Outline: as §1

PCTK1 = biological target: T4, PCTK1 (Homo sapiens, UniProt Q00536)
T4 construct: host or cells: E. coli host derived from BL21, infected with T7 phage
Outline: as §1

SRPK1 = biological target: T5, SRPK1 (Homo sapiens, UniProt Q96SB4)
T5 construct: host or cells: T7 phage grown in E. coli (BL21-derived)
Outline: as §1

SRC = biological target: T6, SRC (Homo sapiens, UniProt P12931)
T6 construct: host or cells: T7 phage grown in E. coli (BL21-derived)
Outline: as §1

ADCK4 = biological target: T7, ADCK4 (Homo sapiens, UniProt Q96D53)
T7 construct: host or cells: E. coli (BL21-derived), T7 phage lysate
Outline: as §1

ERK1 = biological target: T8, ERK1 (Homo sapiens, UniProt P27361)
T8 construct: purchased Ambit Biosciences Corp; host or cells: T7 phage in E. coli host derived from BL21
Outline: as §1

[1] = biological target: T9, TYK2(JH1domain-catalytic) (Homo sapiens, UniProt P29597)
T9 construct: TYK2(JH1domain-catalytic); host or cells: E. coli host derived from BL21, T7 phage
Outline: as §1

HPK1 = biological target: T10, HPK1 (Homo sapiens, UniProt Q92918)
T10 construct: host or cells: T7 phage in E. coli host derived from BL21
Outline: as §1

LOK = biological target: T11, LOK (Homo sapiens, UniProt O94804)
T11 construct: host or cells: E. coli host derived from the BL21 strain, infected with T7 phage
Outline: as §1

TNNI3K = biological target: T12, TNNI3K (Homo sapiens, UniProt Q59H18)
T12 construct: host or cells: E. coli host derived from BL21, T7 phage
Outline: as §1

CAMK4 = biological target: T13, CAMK4 (Homo sapiens, UniProt Q16566)
T13 construct: host or cells: T7 phage in E. coli host derived from BL21
Outline: as §1

KIT = biological target: T14, KIT (Homo sapiens, UniProt P10721)
T14 construct: host or cells: T7 phage grown in E. coli host derived from BL21
Outline: as §1

PIK3CB = biological target: T15, PIK3CB (Homo sapiens, UniProt P42338)
T15 construct: host or cells: E. coli host derived from BL21, infected with T7 phage
Outline: as §1

IKK-beta = biological target: T16, IKK-beta (Homo sapiens, UniProt O14920)
T16 construct: host or cells: T7 phage grown in E. coli host derived from BL21
Outline: as §1

[2] = biological target: T17, RPS6KA6(Kin.Dom.-2-C-terminal) (Homo sapiens, UniProt Q9UK32)
T17 construct: RPS6KA6(Kin.Dom.-2-C-terminal); host or cells: T7 phage grown in E. coli (BL21-derived)
Outline: as §1

[3] = biological target: T18, RPS6KA2(Kin.Dom.-1-N-terminal) (Homo sapiens, UniProt Q15349)
T18 construct: RPS6KA2(Kin.Dom.-1-N-terminal); host or cells: E. coli host derived from BL21, T7 phage display
Outline: as §1

INSR = biological target: T19, INSR (Homo sapiens, UniProt P06213)
T19 construct: host or cells: T7 phage grown in E. coli host derived from BL21
Outline: as §1

MARK3 = biological target: T20, MARK3 (Homo sapiens, UniProt P27448)
T20 construct: host or cells: E. coli host derived from the BL21 strain, infected with T7 phage
Outline: as §1

PRKD3 = biological target: T21, PRKD3 (Homo sapiens, UniProt O94806)
T21 construct: host or cells: T7 phage in E. coli host derived from BL21
Outline: as §1

[4] = biological target: T22, RPS6KA3(Kin.Dom.-1-N-terminal) (Homo sapiens, UniProt P51812)
T22 construct: RPS6KA3(Kin.Dom.-1-N-terminal); host or cells: E. coli host derived from BL21, T7 phage display
Outline: as §1

[5] = biological target: T23, RPS6KA5(Kin.Dom.-1-N-terminal) (Homo sapiens, UniProt O75582)
T23 construct: RPS6KA5(Kin.Dom.-1-N-terminal); host or cells: E. coli host derived from BL21, T7 phage display
Outline: as §1

LCK = biological target: T24, LCK (Homo sapiens, UniProt P06239)
T24 construct: host or cells: T7 phage grown in E. coli host derived from BL21
Outline: as §1

DAPK2 = biological target: T25, DAPK2 (Homo sapiens, UniProt Q9UIK4)
T25 construct: purchased Ambit Biosciences Corp (KinomeScan); host or cells: T7 phage in E. coli host derived from BL21
Outline: as §1

JNK2 = biological target: T26, JNK2 (Homo sapiens, UniProt P45984)
T26 construct: host or cells: T7 phage grown in E. coli host derived from BL21
Outline: as §1

RAF1 = biological target: T27, RAF1 (Homo sapiens, UniProt P04049)
T27 construct: host or cells: E. coli host derived from BL21, T7 phage display
Outline: as §1

CAMK2A = biological target: T28, CAMK2A (Homo sapiens, UniProt Q9UQM7)
T28 construct: host or cells: E. coli host derived from BL21
Outline: as §1

IKK-epsilon = biological target: T29, IKK-epsilon (Homo sapiens, UniProt Q14164)
T29 construct: host or cells: T7 phage grown in E. coli host derived from BL21
Outline: as §1

BIKE = biological target: T30, BIKE (Homo sapiens, UniProt Q9NSY1)
T30 construct: host or cells: E. coli host derived from BL21
Outline: as §1

T5 sequence (Q96SB4 whole entry): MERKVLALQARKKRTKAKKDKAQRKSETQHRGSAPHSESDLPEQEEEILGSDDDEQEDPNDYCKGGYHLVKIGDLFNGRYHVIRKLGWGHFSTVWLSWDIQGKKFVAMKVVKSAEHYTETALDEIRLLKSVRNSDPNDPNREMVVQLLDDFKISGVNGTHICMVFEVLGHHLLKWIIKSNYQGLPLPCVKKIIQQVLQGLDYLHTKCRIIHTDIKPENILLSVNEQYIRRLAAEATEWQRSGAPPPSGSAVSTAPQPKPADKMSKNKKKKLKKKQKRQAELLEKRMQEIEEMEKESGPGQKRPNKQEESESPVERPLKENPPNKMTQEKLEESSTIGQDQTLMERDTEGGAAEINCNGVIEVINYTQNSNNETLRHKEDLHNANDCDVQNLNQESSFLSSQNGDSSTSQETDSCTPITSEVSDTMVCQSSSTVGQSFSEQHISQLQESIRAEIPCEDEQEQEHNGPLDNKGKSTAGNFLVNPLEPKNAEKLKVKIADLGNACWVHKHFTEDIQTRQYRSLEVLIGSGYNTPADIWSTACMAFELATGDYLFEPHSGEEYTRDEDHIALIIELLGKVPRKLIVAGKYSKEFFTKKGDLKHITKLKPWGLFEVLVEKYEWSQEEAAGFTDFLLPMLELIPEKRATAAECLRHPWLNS
T13 sequence (Q16566 whole entry): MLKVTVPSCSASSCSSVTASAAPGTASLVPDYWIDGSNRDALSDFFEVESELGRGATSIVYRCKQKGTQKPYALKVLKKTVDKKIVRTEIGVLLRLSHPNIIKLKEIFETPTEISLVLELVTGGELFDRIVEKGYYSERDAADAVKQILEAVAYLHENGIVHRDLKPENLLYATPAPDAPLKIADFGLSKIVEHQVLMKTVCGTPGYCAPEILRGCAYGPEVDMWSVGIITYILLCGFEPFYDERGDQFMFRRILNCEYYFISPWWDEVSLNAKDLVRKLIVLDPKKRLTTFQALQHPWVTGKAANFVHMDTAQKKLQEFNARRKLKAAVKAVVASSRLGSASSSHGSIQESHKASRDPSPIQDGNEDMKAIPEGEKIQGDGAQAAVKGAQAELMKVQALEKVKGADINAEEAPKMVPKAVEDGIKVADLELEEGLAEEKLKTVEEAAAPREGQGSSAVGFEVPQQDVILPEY
T20 sequence (P27448 whole entry): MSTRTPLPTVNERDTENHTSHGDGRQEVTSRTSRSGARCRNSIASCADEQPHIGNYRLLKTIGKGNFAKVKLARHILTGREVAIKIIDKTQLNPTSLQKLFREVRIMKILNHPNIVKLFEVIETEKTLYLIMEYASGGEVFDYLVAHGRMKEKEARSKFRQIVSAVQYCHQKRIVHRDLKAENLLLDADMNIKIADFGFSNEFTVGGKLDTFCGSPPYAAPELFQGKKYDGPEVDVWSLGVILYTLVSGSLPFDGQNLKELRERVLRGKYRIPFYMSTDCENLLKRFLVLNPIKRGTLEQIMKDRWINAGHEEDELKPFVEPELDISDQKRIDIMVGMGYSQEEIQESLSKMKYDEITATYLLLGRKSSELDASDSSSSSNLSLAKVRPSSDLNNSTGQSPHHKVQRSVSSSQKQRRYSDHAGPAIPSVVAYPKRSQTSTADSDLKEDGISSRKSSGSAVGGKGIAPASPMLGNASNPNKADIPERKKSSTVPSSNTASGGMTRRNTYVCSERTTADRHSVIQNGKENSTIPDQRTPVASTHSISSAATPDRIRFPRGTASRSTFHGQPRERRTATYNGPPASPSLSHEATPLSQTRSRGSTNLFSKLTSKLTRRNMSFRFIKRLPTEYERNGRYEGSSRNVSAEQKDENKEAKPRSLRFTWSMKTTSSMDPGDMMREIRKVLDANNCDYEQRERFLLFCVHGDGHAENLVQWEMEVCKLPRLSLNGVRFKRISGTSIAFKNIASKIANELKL
T3 sequence (Q8N568 whole entry): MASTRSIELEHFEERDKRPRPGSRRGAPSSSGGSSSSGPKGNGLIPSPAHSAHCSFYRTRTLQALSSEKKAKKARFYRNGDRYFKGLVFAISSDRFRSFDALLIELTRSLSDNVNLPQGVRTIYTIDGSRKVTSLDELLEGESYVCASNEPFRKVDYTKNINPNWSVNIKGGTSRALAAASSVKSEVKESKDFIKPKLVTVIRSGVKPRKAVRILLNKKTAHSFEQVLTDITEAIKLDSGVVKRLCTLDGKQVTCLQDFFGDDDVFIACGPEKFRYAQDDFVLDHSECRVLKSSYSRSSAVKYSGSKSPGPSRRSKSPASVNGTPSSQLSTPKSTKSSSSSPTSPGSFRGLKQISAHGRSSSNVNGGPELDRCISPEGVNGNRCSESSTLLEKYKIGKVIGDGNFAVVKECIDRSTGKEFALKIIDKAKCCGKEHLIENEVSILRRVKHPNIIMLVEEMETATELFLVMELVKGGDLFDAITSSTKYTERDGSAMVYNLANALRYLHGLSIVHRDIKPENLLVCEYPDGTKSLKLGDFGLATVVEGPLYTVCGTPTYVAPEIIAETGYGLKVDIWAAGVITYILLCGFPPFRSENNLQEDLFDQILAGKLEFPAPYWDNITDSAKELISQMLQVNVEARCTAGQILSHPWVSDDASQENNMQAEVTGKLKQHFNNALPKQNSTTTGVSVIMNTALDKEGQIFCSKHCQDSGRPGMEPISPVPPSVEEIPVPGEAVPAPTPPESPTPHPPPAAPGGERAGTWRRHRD
T18 sequence (Q15349 59-318 limits assumed): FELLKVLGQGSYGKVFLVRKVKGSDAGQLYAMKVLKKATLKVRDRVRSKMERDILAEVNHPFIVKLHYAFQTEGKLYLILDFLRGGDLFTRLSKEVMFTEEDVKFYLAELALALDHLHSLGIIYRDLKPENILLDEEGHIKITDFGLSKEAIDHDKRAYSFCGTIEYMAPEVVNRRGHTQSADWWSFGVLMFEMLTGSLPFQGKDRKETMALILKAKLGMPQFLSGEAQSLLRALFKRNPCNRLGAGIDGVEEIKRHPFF
T6 sequence (P12931 whole entry): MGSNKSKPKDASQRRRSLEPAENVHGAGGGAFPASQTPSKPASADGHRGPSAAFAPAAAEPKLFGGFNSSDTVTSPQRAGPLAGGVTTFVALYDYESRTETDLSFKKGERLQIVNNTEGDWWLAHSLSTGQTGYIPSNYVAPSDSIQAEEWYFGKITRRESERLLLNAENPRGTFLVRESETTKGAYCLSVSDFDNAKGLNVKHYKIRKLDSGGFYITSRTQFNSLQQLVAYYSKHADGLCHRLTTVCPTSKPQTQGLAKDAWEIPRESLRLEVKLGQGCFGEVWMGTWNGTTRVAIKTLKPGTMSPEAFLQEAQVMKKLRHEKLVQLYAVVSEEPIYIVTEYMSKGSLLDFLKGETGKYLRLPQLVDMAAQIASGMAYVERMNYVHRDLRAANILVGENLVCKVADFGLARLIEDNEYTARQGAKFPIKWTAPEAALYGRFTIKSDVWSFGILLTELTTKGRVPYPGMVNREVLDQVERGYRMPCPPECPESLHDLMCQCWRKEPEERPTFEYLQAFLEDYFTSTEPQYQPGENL
T11 sequence (O94804 whole entry): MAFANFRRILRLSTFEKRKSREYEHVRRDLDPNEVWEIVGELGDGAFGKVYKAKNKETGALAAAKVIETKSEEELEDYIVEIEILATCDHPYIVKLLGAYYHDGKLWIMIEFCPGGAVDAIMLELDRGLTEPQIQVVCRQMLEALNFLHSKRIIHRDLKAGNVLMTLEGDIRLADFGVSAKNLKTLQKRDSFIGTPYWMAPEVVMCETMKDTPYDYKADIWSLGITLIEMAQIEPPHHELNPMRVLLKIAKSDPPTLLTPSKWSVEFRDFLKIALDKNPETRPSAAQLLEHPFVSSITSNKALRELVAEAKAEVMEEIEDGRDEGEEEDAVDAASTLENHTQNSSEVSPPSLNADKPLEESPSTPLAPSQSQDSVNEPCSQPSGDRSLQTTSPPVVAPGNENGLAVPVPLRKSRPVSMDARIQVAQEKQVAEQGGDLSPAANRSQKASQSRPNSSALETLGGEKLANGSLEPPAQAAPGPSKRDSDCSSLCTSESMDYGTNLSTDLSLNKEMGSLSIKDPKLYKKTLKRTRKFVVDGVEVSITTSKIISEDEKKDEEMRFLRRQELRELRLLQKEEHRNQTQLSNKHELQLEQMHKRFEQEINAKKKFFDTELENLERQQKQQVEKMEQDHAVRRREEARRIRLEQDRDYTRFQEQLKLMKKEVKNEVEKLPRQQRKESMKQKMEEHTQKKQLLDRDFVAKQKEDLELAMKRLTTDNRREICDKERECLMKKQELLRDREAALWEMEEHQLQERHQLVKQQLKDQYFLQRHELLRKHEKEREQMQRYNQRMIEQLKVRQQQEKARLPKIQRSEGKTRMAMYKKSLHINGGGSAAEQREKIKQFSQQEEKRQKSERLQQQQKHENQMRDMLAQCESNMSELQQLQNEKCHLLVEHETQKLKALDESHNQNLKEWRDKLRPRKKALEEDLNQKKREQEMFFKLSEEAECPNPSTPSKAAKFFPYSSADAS
T24 sequence (P06239 whole entry): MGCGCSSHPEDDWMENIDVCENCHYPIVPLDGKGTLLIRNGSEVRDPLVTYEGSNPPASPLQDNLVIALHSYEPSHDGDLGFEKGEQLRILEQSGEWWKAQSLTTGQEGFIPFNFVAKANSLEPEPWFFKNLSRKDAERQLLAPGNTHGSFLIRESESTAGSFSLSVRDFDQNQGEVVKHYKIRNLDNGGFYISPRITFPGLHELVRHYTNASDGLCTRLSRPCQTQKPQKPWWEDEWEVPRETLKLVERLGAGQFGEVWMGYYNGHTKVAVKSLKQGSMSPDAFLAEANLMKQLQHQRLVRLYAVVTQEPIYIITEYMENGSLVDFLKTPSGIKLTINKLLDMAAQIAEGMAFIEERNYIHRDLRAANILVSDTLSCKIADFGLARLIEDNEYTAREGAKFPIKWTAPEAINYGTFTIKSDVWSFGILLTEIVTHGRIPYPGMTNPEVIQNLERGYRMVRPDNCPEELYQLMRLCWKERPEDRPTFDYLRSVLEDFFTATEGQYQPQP

`C#Cc1cccc(Nc2ncnc3cc(OC)c(OCCCN4CCOCC4)cc23)c1` [NRC-2694, N-(3-ethynylphenyl)-7-methoxy-6-[3-(4-morpholinyl)propoxy]-4-quinazolinamine] was tested, and the remaining binding at 10 µM (BRSK1) was 53%, the remaining binding at 10 µM (EPHB2) was 83% and the remaining binding at 10 µM (DCAMKL2) was 69%. For the same molecule, the remaining binding at 10 µM (PCTK1) was 100%, the remaining binding at 10 µM (SRPK1) was 40% and the remaining binding at 10 µM (SRC) was 24%. The remaining binding at 10 µM (ADCK4) was 14%, the remaining binding at 10 µM (ERK1) was 98% and the remaining binding at 10 µM [1] was 97%. It also gave a remaining binding at 10 µM (HPK1) of 47%, a remaining binding at 10 µM (LOK) of 0% and a remaining binding at 10 µM (TNNI3K) of 7.6%. The remaining binding at 10 µM (CAMK4) was 92%, the remaining binding at 10 µM (KIT) was 26% and the remaining binding at 10 µM (PIK3CB) was 100%. For the same molecule, the remaining binding at 10 µM (IKK-beta) was 51%, the remaining binding at 10 µM [2] was 55% and the remaining binding at 10 µM [3] was 70%. It also gave a remaining binding at 10 µM (INSR) of 90%, a remaining binding at 10 µM (MARK3) of 62% and a remaining binding at 10 µM (PRKD3) of 7.2%. The remaining binding at 10 µM [4] was 94%, the remaining binding at 10 µM [5] was 85% and the remaining binding at 10 µM (LCK) was 1.5%. It also gave a remaining binding at 10 µM (DAPK2) of 61%, a remaining binding at 10 µM (JNK2) of 95% and a remaining binding at 10 µM (RAF1) of 100%. For the same molecule, the remaining binding at 10 µM (CAMK2A) was 63%, the remaining binding at 10 µM (IKK-epsilon) was 75% and the remaining binding at 10 µM (BIKE) was 36%.

— patent US8921362B2, “6,7-dialkoxy quinazoline derivatives and methods of treating drug resistant and other tumors” (Natco Pharma Limited, priority 2008, dated 2014)
